Measured values as given in ChEMBL document CHEMBL1201862, “PubChem BioAssay data set” (2004).
Each block holds one molecule with its values, some of them ahead of it. Active and inactive are the calls of the source.

How the values were obtained:
[1] = biological target: RNA-editing ligase 1, mitochondrial (Trypanosoma brucei brucei, UniProt P86926); assay: TbREL1 ligase inhibitors, dose response, biochemical, fluorescence, Trypanosoma brucei (AID 1117295); assay type: functional
[2] = HIV Env cell-cell fusion inhibitors, dose response, HIV entry, plate reader, dry powder (AID 687023); assay type: functional, cell-based
[3] = CEM21 cell cytotoxicity, dose response, cytotoxicity control, plate reader, dry powder (AID 687026); assay type: functional, cell-based
[4] = ZM109 Env clade C HIV-1 fusion inhibitors, dose response, HeLa effector, CEM target cells, luciferase, cherry-pick (AID 652058); assay type: functional, cell-based
[5] = inhibitors of HIV Env-driven cell fusion, dose response, cherry-pick (AID 652057); assay type: functional, cell-based
Estrogen receptor beta [6] = biological target: T1, Estrogen receptor beta (Homo sapiens, UniProt Q92731);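 further: recombinant ER-beta bound to coactivator SRC1 peptide in presence of estradiol agonist; inhibitors block coactivator peptide binding and lower the FRET signal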
Estrogen receptor beta [7] = biological target: T1, Estrogen receptor beta; assay: ERβ–SRC-3 coactivator interaction inhibitors, confirmation, orthogonal assay, biochemical, ELISA, streptavidin-HRP readout (AID 1060)
[8] = biological target: E3 ubiquitin-protein ligase UHRF1 (Homo sapiens, UniProt Q96T88); assay: Counterscreen for inhibitors of 5-meCpG-binding domain protein 2 (MBD2): TRFRET-based biochemical high throughput dose response assay to identify inhibitors of binding of ubiquitin-like with PHD and ring finger domains 1 (UHRF1) to methylated oligonucleotide.
[9] = biological target: T2, Carboxy-terminal domain RNA polymerase II polypeptide A small phosphatase 1 (Homo sapiens, UniProt Q9GZU7); assay: inhibitors of CTDSP1, concentration-response testing, biochemical assay, absorbance-based, actives from ultra-high-throughput screening (AID 540297); assay type: functional
T2 sequence (Q9GZU7 whole entry): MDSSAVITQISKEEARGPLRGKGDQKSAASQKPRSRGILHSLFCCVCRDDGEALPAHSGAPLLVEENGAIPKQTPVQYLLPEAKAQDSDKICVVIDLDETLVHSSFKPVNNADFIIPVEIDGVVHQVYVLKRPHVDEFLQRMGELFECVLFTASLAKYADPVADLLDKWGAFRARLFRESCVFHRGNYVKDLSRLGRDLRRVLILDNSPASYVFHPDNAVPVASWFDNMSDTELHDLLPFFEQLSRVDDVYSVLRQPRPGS

Estrogen receptor = biological target: T3, Estrogen receptor (Homo sapiens, UniProt P03372);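 further: potency for inhibiting coactivator peptide recruitment to the receptor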
T3 sequence (P03372 whole entry): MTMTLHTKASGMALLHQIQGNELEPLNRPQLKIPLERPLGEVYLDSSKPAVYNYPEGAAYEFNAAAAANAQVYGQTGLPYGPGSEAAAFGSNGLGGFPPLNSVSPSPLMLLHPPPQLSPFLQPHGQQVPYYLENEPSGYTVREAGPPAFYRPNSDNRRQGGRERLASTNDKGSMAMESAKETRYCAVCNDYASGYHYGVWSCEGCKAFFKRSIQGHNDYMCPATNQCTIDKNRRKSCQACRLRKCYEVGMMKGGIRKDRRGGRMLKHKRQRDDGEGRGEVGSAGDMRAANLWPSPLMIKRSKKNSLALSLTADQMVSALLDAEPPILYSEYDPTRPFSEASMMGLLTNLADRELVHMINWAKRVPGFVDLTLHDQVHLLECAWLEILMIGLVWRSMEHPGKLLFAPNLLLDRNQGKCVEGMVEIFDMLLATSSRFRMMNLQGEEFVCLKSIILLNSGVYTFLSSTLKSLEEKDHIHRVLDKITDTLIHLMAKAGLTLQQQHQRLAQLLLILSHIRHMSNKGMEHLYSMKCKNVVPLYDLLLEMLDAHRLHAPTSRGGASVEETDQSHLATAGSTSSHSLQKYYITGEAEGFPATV

[10] = biological target: DNA dC->dU-editing enzyme APOBEC-3G (Homo sapiens, UniProt Q9HC16); assay type: functional;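 further: Dose-response counterscreen measuring inhibition of APOBEC3G DNA deaminase activity, run while confirming APOBEC3A inhibitors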
14-3-3 protein gamma = 14-3-3 protein gamma (Homo sapiens, UniProt P61981); assay: modulators of 14-3-3 gamma client binding – dose response (AID 711); assay type: functional
[11] = biological target: DNA dC->dU-editing enzyme APOBEC-3A (Homo sapiens, UniProt P31941); assay: Dose Response confirmation of small molecule APOBEC3A DNA Deaminase Inhibitors via a fluorescence-based single-stranded DNA deaminase assay. [Related pubchem assays (depositor defined):AID493011, AID493024]; assay type: functional
Bcl-2-like protein 10 = biological target: T4, Bcl-2-like protein 10 (Homo sapiens, UniProt Q9HD36); assay: displacers of TR3 peptide from Bcl-B, primary screen, selectivity assay for Bfl-1 inhibitor project, biochemical, fluorescence polarization, FITC-TR3 peptide (AID 748);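 further: fluorescence polarization from a fluorescein-labelled TR3 peptide binding purified Bcl-B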
T4 sequence (Q9HD36 whole entry): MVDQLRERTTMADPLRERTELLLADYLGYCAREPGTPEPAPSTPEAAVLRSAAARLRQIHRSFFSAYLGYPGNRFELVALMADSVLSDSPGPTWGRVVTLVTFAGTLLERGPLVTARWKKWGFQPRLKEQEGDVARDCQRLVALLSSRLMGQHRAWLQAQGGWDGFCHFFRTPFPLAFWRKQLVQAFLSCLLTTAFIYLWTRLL

[12] = biological target: T5, Low molecular weight phosphotyrosine protein phosphatase (Homo sapiens, UniProt P24666); assay: LMPTP phosphatase inhibitors, colorimetric pNPP readout, dose response, orthogonal assay, biochemical, absorbance, pNPP substrate, LMPTP-A isoform, set 2 (AID 743308); assay type: functional
[13] = biological target: T5, Low molecular weight phosphotyrosine protein phosphatase; assay: LMPTP phosphatase inhibitors, dose response, biochemical, OMFP substrate, fluorescence intensity, set 2 (AID 743307); assay type: functional
Bcl-2-related protein A1 [14] = biological target: T6, Bcl-2-related protein A1 (Mus musculus, UniProt Q07440); assay: Bfl-1 inhibitors blocking BH3 peptide binding, confirmation, biochemical, TR-FRET, mouse Bfl-1 (AID 621);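 further: TR-FRET binding of GST-Bfl-1 to FITC-labelled Bid peptide via terbium antibody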
T6 sequence (Q07440 whole entry): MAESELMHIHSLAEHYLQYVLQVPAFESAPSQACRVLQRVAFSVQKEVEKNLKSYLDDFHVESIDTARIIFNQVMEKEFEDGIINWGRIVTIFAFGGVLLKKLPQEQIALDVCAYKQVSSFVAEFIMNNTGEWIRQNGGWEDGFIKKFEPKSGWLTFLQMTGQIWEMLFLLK

Bcl-2-related protein A1 [15] = biological target: T6, Bcl-2-related protein A1; assay: Bfl-1 inhibitors, primary screen, biochemical, fluorescence polarization, FITC-Bid, mouse (AID 432)

T1 sequence (Q92731 whole entry): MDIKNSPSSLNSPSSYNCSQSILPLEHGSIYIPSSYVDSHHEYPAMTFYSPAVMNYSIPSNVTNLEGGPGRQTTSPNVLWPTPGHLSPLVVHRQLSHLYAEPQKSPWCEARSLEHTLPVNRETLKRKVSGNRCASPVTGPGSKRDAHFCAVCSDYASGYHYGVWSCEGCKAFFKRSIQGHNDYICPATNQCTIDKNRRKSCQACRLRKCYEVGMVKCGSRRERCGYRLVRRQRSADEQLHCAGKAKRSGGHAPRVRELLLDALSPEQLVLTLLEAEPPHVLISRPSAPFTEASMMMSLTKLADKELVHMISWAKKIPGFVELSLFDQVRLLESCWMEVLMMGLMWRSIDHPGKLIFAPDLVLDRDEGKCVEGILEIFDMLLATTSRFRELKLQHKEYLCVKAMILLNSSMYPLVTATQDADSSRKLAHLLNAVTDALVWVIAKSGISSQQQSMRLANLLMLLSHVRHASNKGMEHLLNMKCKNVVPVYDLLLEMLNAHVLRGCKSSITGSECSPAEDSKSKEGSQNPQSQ
T5 sequence (P24666 whole entry, canonical isoform): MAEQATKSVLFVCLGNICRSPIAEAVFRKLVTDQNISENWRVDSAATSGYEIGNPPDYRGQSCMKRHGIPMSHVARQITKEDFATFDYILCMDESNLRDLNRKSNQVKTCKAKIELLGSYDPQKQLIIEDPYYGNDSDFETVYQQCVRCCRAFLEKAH
DNA dC->dU-editing enzyme APOBEC-3G, sequence (Q9HC16 whole entry): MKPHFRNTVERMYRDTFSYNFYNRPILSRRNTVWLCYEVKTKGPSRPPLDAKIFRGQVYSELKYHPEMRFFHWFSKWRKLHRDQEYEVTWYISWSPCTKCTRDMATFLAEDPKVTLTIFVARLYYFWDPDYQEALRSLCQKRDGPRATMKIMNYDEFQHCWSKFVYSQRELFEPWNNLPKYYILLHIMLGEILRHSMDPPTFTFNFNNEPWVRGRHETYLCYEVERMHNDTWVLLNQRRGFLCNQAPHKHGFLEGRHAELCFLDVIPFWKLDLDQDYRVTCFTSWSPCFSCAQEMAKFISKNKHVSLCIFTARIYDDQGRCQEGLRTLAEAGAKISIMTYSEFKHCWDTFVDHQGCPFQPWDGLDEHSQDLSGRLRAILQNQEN
RNA-editing ligase 1, mitochondrial, sequence (P86926 whole entry, the tested form may be a part): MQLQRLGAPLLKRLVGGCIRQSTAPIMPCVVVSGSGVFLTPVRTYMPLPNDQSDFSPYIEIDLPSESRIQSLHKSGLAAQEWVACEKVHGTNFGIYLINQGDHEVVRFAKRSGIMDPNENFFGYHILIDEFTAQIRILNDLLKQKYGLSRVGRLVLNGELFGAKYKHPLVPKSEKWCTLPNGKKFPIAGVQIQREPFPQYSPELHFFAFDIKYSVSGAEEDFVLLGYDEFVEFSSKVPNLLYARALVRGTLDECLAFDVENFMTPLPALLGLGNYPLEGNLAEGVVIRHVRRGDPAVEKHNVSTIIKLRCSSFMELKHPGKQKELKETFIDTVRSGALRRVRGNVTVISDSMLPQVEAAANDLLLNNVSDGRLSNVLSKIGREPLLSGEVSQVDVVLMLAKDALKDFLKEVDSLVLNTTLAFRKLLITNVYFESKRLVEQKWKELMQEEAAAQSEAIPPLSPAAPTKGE
E3 ubiquitin-protein ligase UHRF1, sequence (Q96T88 whole entry, the tested form may be a part): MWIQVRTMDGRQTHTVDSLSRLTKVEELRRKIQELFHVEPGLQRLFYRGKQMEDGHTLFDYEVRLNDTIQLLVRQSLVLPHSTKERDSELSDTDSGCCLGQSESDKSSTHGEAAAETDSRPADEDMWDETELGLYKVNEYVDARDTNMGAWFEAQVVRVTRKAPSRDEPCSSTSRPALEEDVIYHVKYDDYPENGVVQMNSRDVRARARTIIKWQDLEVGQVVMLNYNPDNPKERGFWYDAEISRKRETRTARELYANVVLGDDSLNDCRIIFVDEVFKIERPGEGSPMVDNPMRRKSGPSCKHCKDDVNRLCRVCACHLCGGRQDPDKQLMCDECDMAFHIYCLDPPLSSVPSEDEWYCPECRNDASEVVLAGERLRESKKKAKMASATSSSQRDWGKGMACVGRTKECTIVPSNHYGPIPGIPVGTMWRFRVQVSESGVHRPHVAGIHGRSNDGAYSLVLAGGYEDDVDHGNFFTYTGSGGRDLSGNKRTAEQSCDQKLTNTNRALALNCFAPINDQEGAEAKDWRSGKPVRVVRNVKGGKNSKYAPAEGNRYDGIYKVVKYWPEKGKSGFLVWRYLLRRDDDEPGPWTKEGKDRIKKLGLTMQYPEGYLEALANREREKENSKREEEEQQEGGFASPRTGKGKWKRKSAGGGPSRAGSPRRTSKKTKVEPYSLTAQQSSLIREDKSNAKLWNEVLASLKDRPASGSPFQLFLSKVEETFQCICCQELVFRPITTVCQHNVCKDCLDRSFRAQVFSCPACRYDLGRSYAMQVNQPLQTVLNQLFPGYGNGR
DNA dC->dU-editing enzyme APOBEC-3A, sequence (P31941 whole entry): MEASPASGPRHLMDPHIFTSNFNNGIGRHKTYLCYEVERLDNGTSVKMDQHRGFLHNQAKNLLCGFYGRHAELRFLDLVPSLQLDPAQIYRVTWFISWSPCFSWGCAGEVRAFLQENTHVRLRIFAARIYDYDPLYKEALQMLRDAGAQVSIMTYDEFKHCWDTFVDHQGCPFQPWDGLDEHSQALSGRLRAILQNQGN
14-3-3 protein gamma, sequence (P61981 whole entry): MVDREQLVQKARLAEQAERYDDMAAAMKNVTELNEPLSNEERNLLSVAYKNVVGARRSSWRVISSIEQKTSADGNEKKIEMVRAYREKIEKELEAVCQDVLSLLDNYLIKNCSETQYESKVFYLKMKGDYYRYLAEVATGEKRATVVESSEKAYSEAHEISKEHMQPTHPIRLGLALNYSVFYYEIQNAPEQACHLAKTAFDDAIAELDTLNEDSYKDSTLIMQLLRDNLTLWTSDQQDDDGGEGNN

Compound: COC(=O)C1=C(C)N(Cc2ccc(C(F)(F)F)cc2)C(NCc2ccc(C(F)(F)F)cc2)=NC1c1ccccc1C(F)(F)F (stereo not drawn)
IC50 [1]: > 96.6 µM (inactive)

Compound: C[C@@H]1CN([C@@H](C)CO)C(=O)c2cccc(NS(=O)(=O)c3ccc(F)cc3)c2O[C@@H]1CN(C)Cc1ccc(C(F)(F)F)cc1
AC50 [2]: 4.05 µM (active) | AC50 [3]: 43.9 µM (active) | AC50 [4]: 0.451 µM (active) | AC50 [5]: 0.295 µM (active)

Compound: Cc1nc2ccc(C(=O)O)cc2c2c1CC(C)S2 (stereo not drawn)
IC50 [10]: 26.3 µM (active) | IC50 (14-3-3 protein gamma): 25.7 µM (active) | IC50 [11]: 16.2 µM (active) | IC50 (Bcl-2-like protein 10): > 100 µM (inactive)

The remaining lines, values ahead:

IC50 (Estrogen receptor beta [6]): 3.05 µM (active) | IC50 (Estrogen receptor beta [7]): 17.6 µM (not active) | IC50 [8]: > 43.8 µM (inactive) | IC50 [9]: 4.58 µM (active) | IC50 (Estrogen receptor): 4.83 µM (active)
Compound: O=C(Cc1coc2cc3c(cc12)CCC3)OCc1cc(=O)n2c(n1)sc1ccccc12

IC50 [12]: 2.98 µM (active) | IC50 [13]: 1.56 µM (active)
Compound: c1ccc(-c2cc(NCCCN3CCCCC3)c3ccccc3n2)cc1

IC50 (Bcl-2-related protein A1 [14]): > 100 µM (not active) | IC50 (Bcl-2-related protein A1 [15]): > 100 µM (not active)
Compound: OCCCc1nc2n(n1)C(c1cccs1)C=C(c1ccccc1)N2 (stereo not drawn)
